SMILES strings stand for the structures. “Also recorded” adds a separate entry of the source.

Assay [1] relates to AR-overexpressed LNCaP xenograft tumors. The assay can be described thus: AR-overexpressed LNCaP xenograft model in castrated SCID mice. It is filed as in vivo. As to the method: FIG. 7 is a graph of tumor size. AR overexpressing LNCaP cells were injected in the flanks of castrated SCID mice, subcutaneously. When tumors reached about 100 cubic mm, they were randomized into five groups. Each group had nine animals. […]. The tumors were measured three-dimensionally, width, length and depth, using a caliper.
FIG. 8 depicts experimental results of tumor size. At day 18, the animals were imaged via an optical CCD camera, 3 hours after last dose of treatment. A ROI was drawn over the tumor for luciferase activity measurement in photon/second. The right panels is a representation of the ROIs measurements.
Compounds of the invention are used to examine if the diaryihydantoin derivatives have in vivo effects on hormone refractory prostate cancer. First we examine this compound on xenograft tumors established from AR-overexpressed LNCaP cells. Engineered cells in Matrigel (Collaborative Biomedical) are injected subcutaneously into the flanks of the castrated male SCID mice. Tumor size is measured weekly in three dimensions using calipers. After xenograft tumors established (tumor size at least 40 mm^3), mice with tumors are randomized and treated with different doses of compounds orally once daily. The inhibitory effect on growth of AR-overexpressed LNCaP xenograft model is studied as follows. Mice with established LN-AR xenograft tumors are randomized and treated with indicated compounds orally once daily. Tumor size are measured by caliber.
All animal experiments were performed in compliance with the guidelines of the Animal Research Committee of the University of California at Los Angeles. Animals were bought from Taconic and maintained in a laminar flow tower in a defined flora colony. LNCaP-AR and LNCaP-vector cells were maintained in RPMI medium supplemented with 10% FBS. 10^6 cells in 100 μl of 1:1 Matrigel to RPMI medium were injected subcutaneously into the flanks of intact or castrated male SCID mice. Tumor size was measured weekly in three dimensions (length×width×depth) using calipers. Mice were randomized to treatment groups when tumor size reached approximately 100 mm^3. Drugs were given orally every day at 10 mg/kg and 50 mg/kg. To obtain pharmacodynamic readout, the animals were imaged via an optical CCD camera, 3 hours after last dose of the treatment. A ROI is drawn over the tumor for luciferase activity measurement in photon/second. The right panels were a representation of the ROIs measurements. […]

Assay [2] concerns LN-AR(HR) cell line tumors. The assay can be described thus: LN-AR(HR) cell line tumors in SCID mice (FIG. 19). It is filed as in vivo. Particulars: 10 mg per kg body weight per day. The source says: (A) The relative tumor volume as a function of time shown for each set of mice. (B) Images of each set of mice with photon emission associated with luciferase activity at day 31 shown as color contours. (C) Rate of photon emission associated with luciferase activity shown at several times for each set of mice.

Assay [3] deals with LIAR cell line. The assay can be described thus: Luciferase activity of the LIAR cell line (FIG. 25). In kind it is cell-based. Particulars: 125 nmol to 1000 nmol. The text has this: FIG. 25 is a graph of luciferase activity of the LIAR cell line dosed with various compounds administered at concentrations ranging from 125 nmol to 1000 nmol.
The inventors have determined that what might appear to be a small change in the structure of hydantoin compounds may result in a large change in that compound's performance in treating prostate cancer.

Assay [4] concerns the target T1, AR (Homo sapiens, UniProt P10275).
T1 sequence (P10275 1-920): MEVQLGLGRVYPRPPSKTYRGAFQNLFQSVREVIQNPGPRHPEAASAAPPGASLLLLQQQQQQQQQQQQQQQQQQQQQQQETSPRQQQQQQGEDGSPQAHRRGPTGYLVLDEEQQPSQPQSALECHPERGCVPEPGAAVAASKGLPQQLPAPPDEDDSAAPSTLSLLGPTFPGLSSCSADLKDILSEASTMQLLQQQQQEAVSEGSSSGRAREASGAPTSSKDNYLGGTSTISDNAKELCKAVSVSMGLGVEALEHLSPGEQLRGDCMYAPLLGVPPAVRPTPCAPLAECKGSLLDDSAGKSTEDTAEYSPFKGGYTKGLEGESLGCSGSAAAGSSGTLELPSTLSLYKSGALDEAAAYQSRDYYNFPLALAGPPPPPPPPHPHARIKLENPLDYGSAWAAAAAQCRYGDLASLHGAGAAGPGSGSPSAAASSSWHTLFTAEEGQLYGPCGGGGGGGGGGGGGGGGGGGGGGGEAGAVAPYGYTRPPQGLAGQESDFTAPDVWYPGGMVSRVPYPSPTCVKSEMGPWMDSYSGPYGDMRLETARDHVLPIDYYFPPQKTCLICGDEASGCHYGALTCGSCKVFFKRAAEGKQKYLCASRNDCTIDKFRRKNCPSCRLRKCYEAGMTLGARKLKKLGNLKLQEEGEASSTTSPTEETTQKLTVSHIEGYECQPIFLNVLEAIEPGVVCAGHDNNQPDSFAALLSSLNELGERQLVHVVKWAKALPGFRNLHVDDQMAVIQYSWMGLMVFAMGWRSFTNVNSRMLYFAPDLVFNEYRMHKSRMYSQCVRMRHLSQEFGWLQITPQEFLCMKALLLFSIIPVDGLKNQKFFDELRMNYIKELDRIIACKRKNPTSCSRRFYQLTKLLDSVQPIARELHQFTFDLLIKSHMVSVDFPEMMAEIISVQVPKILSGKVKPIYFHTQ
In kind it is cell-based. The arrangement: Fold induction, AR response reporter. The method, then:
It is well established that PSA levels are indicators of AR activities in prostate cancer. […] The LNCaP-AR cells are a line of lymph node carcinoma of prostate cells transduced with a plasmid that makes express androgen receptors. […] After four days incubation, secreted PSA levels were assayed using PSA ELISA kits (American Qualex, San Clemente, Calif.)

Regarding `CNC(=O)c1ccc(N2C(=S)N(c3ccc(C#N)c(C(F)(F)F)c3)C(=O)C23CCC3)cc1F` [NC53, N-methyl-4-[7-(4-cyano-3-trifluoromethylphenyl)-8-oxo-6-thioxo-5,7-diaza-spiro[3.4]oct-5-yl]-2-fluorobenzamide], in assay [1] (FIG. 8, day 18, relative to vehicle), the “photon emission associated with luciferase activity” value is recorded as “photon emission decreased”. Moreover, the “tumor growth / tumor volume” value in assay [1] (oral once daily, FIG. 7: 10 or 50 mg/kg, 18 days) was “effective to prevent tumor growth and even to cause tumor shrinkage, and was distinctly more effective than bicalutamide; also recorded: tumors decreased in size”. Also, in assay [2], the “tumor size and photon emission associated with luciferase activity” value is “decrease or stabilization of tumor size and a decrease in photon emission associated with luciferase activity”. Besides, the “luciferase activity (comparison)” value in assay [3] is on record as “less than the luciferase activity upon exposure to NC98”. Further, in assay [4] (100, 200, 500, and 1000 nM, FIG. 20), the “PSA levels of LN-AR cells” value is reported as “PSA levels of LN-AR cells decreased”. Moreover, in assay [4] (LN-AR cells, FIG. 23), the PSA levels result is “PSA levels decreased”.

(Values after patent US8648105B2, “Diarylthiohydantoin compounds” (The Regents of the University of California, priority 2006, dated 2014).)
